According to ChEMBL document CHEMBL5030514, “Discovery of Anti-TNBC Agents Targeting PTP1B: Total Synthesis, Structure-Activity Relationship, In Vitro and In Vivo Investigations of Jamunones” (J Med Chem, 2021):

Columns and labels:
MDA-MB-231 = assay: Antiproliferative activity against human MDA-MB-231 cells measured by MTT assay; assay type: functional, cell-based
MCF7 = assay: Antiproliferative activity against human MCF-7 cells measured by MTT assay; assay type: functional, cell-based

| SMILES | IC50 (MDA-MB-231) | IC50 (MCF7) |
| --- | --- | --- |
| CC/C=C\C/C=C\C/C=C\CCCCCCCC1(O)CC(=O)c2c(O)c(C)c(O)c(C)c2O1 (stereo not given) | 42.8 µM | 43.2 µM |
| CCCCC/C=C\C/C=C\CCCCCCCc1cc(=O)c2c(O)c(C)c(OCOC)cc2o1 | > 87 µM | > 67.3 µM |
| CC/C=C\C/C=C\C/C=C\CCCCCCCc1cc(=O)c2c(O)c(C)c(OCOC)c(C)c2o1 | 16.1 µM | > 84.1 µM |
| CCCCCCCCCCCCCCCc1cc(=O)c2c(O)cc(OCOC)c(C)c2o1 | > 87 µM | > 67.3 µM |
| CCCCC1(O)CC(=O)c2c(O)cc(O)cc2O1 (stereo not given) | > 87 µM | > 67.3 µM |
| CCCCC/C=C\C/C=C\CCCCCCCc1cc(=O)c2c(O)c(C)c(O)cc2o1 | 16.1 µM | > 84.1 µM |
| CCCC/C=C\CCCCCCCCCc1cc(=O)c2c(O)c(C)c(OCOC)c(C)c2o1 | > 87 µM | > 67.3 µM |
| CCCCC/C=C\C/C=C\CCCCCCCc1cc(=O)c2c(O)cc(OCOC)cc2o1 | > 87 µM | > 67.3 µM |
| CCCC/C=C\CCCCCCCCCc1cc(=O)c2c(O)cc(OCOC)cc2o1 | > 87 µM | > 67.3 µM |
| CCCCCCCCCCCCCCCc1cc(=O)c2c(O)c(C)c(OCOC)c(C)c2o1 | > 87 µM | > 67.3 µM |
| CCCCCCCCCCCCCCCc1cc(=O)c2c(O)c(C)c(O)c(C)c2o1 | > 87 µM | > 67.3 µM |
| CCCCC/C=C\C/C=C\CCCCCCCc1cc(=O)c2c(O)c(C)c(OCOC)c(C)c2o1 | 16.1 µM | > 84.1 µM |
| CCCCCCCCCCCCCCCc1cc(=O)c2c(O)c(C)c(OCOC)cc2o1 | > 87 µM | > 67.3 µM |
| CCCC/C=C/CCCCCCCCCC1(O)CC(=O)c2c(O)cc(O)cc2O1 (stereo not given) | 18.7 µM | 33.9 µM |
| CCCC/C=C\CCCCCCCCCC1(O)CC(=O)c2c(O)cc(OCOC)cc2O1 (stereo not given) | 42.8 µM | 43.2 µM |
| CCCCCCCCCCCCCCCCCCCC1(O)CC(=O)c2c(O)cc(O)cc2O1 (stereo not given) | > 87 µM | > 67.3 µM |
| CCCCC/C=C\C/C=C\CCCCCCCC1(O)CC(=O)c2c(O)c(C)c(O)c(C)c2O1 (stereo not given) | 42.8 µM | 43.2 µM |
| CCCCCCCCCCCC1(O)CC(=O)c2c(O)cc(O)cc2O1 (stereo not given) | 42.8 µM | 43.2 µM |
| CCCCC/C=C\C/C=C\CCCCCCCc1cc(=O)c2c(O)c(C)c(O)c(C)c2o1 | 16.1 µM | > 84.1 µM |
| CCCCC/C=C\C/C=C\CCCCCCCC1(O)CC(=O)c2c(O)cc(OCOC)cc2O1 (stereo not given) | 16.1 µM | > 84.1 µM |
| CCCC/C=C\CCCCCCCCCc1cc(=O)c2c(O)c(C)c(O)cc2o1 | 42.8 µM | 43.2 µM |
| CCCCCCCCCCCCCCCC1(O)CC(=O)c2c(O)c(C)c(O)c(C)c2O1 (stereo not given) | 16.1 µM | > 100 µM |
| CCCCC/C=C\C/C=C\CCCCCCCc1cc(=O)c2c(O)cc(OCOC)c(C)c2o1 | 16.1 µM | > 84.1 µM |
| CCCCCCCCCCCCCCCC1(O)CC(=O)c2c(O)cc(OCOC)cc2O1 (stereo not given) | > 87 µM | > 67.3 µM |
| CCCCCCCCCCCCCCCc1cc(=O)c2c(O)c(C)c(O)cc2o1 | 42.8 µM | 43.2 µM |
| CCCC/C=C\CCCCCCCCCc1cc(=O)c2c(O)c(C)c(OCOC)cc2o1 | > 87 µM | > 67.3 µM |
| CC/C=C\C/C=C\C/C=C\CCCCCCCc1cc(=O)c2c(O)cc(OCOC)cc2o1 | 6.79 µM | 17.5 µM |
| CCCC/C=C\CCCCCCCCCc1cc(=O)c2c(O)cc(OCOC)c(C)c2o1 | > 87 µM | > 67.3 µM |
| CCCC/C=C\CCCCCCCCCc1cc(=O)c2c(O)c(C)c(O)c(C)c2o1 | > 87 µM | > 67.3 µM |

Next, values leading:

| IC50 (MDA-MB-231) | IC50 (MCF7) | SMILES |
| --- | --- | --- |
| 6.79 µM | 17.5 µM | CC/C=C\C/C=C\C/C=C\CCCCCCCc1cc(=O)c2c(O)cc(O)cc2o1 |
| 6.79 µM | 17.5 µM | CCCCC/C=C\C/C=C\CCCCCCCc1cc(=O)c2c(O)cc(O)cc2o1 |
| 6.79 µM | 17.5 µM | CCCCCCCCCCCCCCCc1cc(=O)c2c(O)cc(O)cc2o1 |
| 6.79 µM | 17.5 µM | CC/C=C\C/C=C\C/C=C\CCCCCCCc1cc(=O)c2c(O)cc(O)c(C)c2o1 |
| 6.79 µM | 17.5 µM | CC/C=C\C/C=C\C/C=C\CCCCCCCc1cc(=O)c2c(O)c(C)c(O)cc2o1 |
| 6.79 µM | 17.5 µM | CC/C=C\C/C=C\C/C=C\CCCCCCCc1cc(=O)c2c(O)c(C)c(O)c(C)c2o1 |
| 6.79 µM | 17.5 µM | CC/C=C\C/C=C\C/C=C\CCCCCCCC1(O)CC(=O)c2c(O)cc(OCOC)cc2O1 (stereo not given) |
| 6.79 µM | 17.5 µM | CCCCCCCCCCCCCCCc1cc(=O)c2c(O)cc(O)c(C)c2o1 |
| 6.79 µM | 17.5 µM | CC/C=C\C/C=C\C/C=C\CCCCCCCC1(O)CC(=O)c2c(O)cc(O)cc2O1 (stereo not given) |
| 6.79 µM | 17.5 µM | CCCCC/C=C\C/C=C\CCCCCCCc1cc(=O)c2c(O)cc(O)c(C)c2o1 |
| 6.79 µM | 17.5 µM | CC/C=C\C/C=C\C/C=C\CCCCCCCc1cc(=O)c2c(O)c(C)c(OCOC)cc2o1 |
| 6.79 µM | 17.5 µM | CC/C=C\C/C=C\C/C=C\CCCCCCCc1cc(=O)c2c(O)cc(OCOC)c(C)c2o1 |
| 6.79 µM | 17.5 µM | CCCCC/C=C\C/C=C\CCCCCCCC1(O)CC(=O)c2c(O)cc(O)cc2O1 (stereo not given) |
| 6.79 µM | 17.5 µM | CCCC/C=C\CCCCCCCCCc1cc(=O)c2c(O)cc(O)c(C)c2o1 |
| 6.79 µM | 17.5 µM | CCCCCCCCCCCCCCCC1(O)CC(=O)c2c(O)cc(O)cc2O1 (stereo not given) |
| 6.79 µM | 17.5 µM | CCCC/C=C\CCCCCCCCCc1cc(=O)c2c(O)cc(O)cc2o1 |
